Experimental data taken from patent US10144726B2, “Modulators of the p70S6 kinase for use in the treatment of brain disorders and triple-negative breast cancer” (SENTINEL ONCOLOGY LIMITED, priority 2015, dated 2018).

How the values were obtained:
[1] = test system: phosphorylation of S6 Ser235/236 in MCF-7 cells; assay: MCF-7 pS6 ELISA (phosphorylation of S6 Ser235/236); assay type: cell-based; details: Homo sapiens, MCF7; S6 Ser235/236, 1% FBS, 2 h; read-out: (b) MCF-7 pS6 ELISA IC50
Procedure: The following assay provides IC50 values for inhibition of P70S6K activity in a whole cell assay by determining effects on the phosphorylation of S6^Ser235/236 in MCF-7 cells by ELISA.
The following protocol was used: • 1) MCF-7 cells were seeded in 96-well plates at a density of 7000 cells per well and allowed to adhere for 6 h in media containing 10% FBS. • 2) The full serum media was replaced and cells incubated overnight in media containing 1% FBS, prior to addition of test compounds. • 3) Test compounds were prepared from 10 mM DMSO stocks to give final concentration ranges as indicated on graphs. DMSO was constant at a final concentration of 1%. • 4) Test compounds were incubated with cells in duplicate for 2 h at 37° C/5% CO2 in a humidified atmosphere. • 5) The media was removed and cells were lysed by freeze-thawing in cell lysis buffer. • 6) Detection of phosphorylated S6Ser235/236 was then carried out using a PathScan ELISA kit (Cell Signaling Technology #7205). • 7) Lysates were diluted 1:1 with sample diluent before being applied to wells coated with an antibody against phosphorylated-S6 protein. • 8) The ELISA was then performed as stated in the manufacturers' instructions. • 9) The raw data were normalised to control values and analysed using a 4-parameter logistic equation in GraphPad Prism.

[2] = test system: MCF-7 cells; assay: MCF-7 proliferation assay (Alamar blue, 72 h); assay type: cell-based; details: Homo sapiens, MCF7, 72 h; read-out: (c) MCF-7 proliferation IC50
Procedure: The following assay was used to determine the ability of test compounds to inhibit cell growth.
The following protocol was used: • 1) MCF-7 cells were seeded in 96-well plates at 5000 cells per well and allowed to adhere overnight prior to addition of compound or vehicle control. • 2) Test compounds were prepared from 10 mM DMSO stocks to give a final concentration range of 100 μM, 30 μM, 10 μM, 3 μM, 1 μM, 0.3 μM, 0.1 μM, 0.03 μM, 0.01 μM and vehicle control. The DMSO content was constant at 1%. • 3) Test compounds were incubated with the cells for 72 h at 37° C. 5% CO2 in a humidified atmosphere. • 4) Alamar blue 10% (v/v) was then added and incubated for a further 6 h, and fluorescent product detected using the BMG FLUOstar plate reader. • 5) Data were analysed using a 4-parameter logistic equation in GraphPad Prism.

[3] = test system: audiogenic seizures in FXS (Fmr1 KO) mice; assay: Audiogenic seizure assay, in vivo model of Fragile X Syndrome; parameters: species or system FVB background; details: 25 mg/kg QD × 7 PO
Source text: Seizures occur in conjunction with FXS and autism in up to one-quarter of children with these disorders (Berry-Kravis E (2002) Epilepsy in fragile X syndrome. Dev. Med. Child Neurol. 44(11):724-728). […] The audiogenic seizure assay (AGS) is a well documented mouse model of FXS (Audiogenic seizures susceptibility in transgenic mice with fragile X syndrome, Epilepsia. 2000 January; 41(1):19-23). In such a model it is possible to dose compounds to observe effects on susceptibility of the mice to audiogenic seizures. The following AGS experiment was set up to test the efficacy of compounds of this application:
Strain of FXS Mouse Used: FVB Background
Vehicle used: 10% DMSO/90% hydroxypropyl-β-cyclodextrin (20% w/v aqueous)
Animals were assessed in AGS following 7 consecutive days of dosing.
The experimental chamber consisted of a plastic cage of dimensions 25×25×47 cm in which a doorbell (Electrical bell Heath Zenith, model 172C-A) had been mounted on the cage roof.
Mice were taken from their housing room one by one and transferred into the experimental chamber and allowed to explore the novel environment (basal noise ˜65 dB) for a period of 30 seconds after which point the bell was rung (124 dB).
The resulting motor responses were classified using a scale modified from the one originally described by Jobe et al. (1973): no response (NR: pause or continuous exploration), wild running (WR), clonic seizure (CS), tonic seizure (TS), respiratory arrest and/or death (RA). In order to define the intensity of the behavioral response a seizure severity score was used (SSS) (Musumeci et al., 2000), consisting of a score assigned to each animal depending on its behavioral response (NR=0, WR=1, CS=2, TS=3, RA=4). To determine the SSS for a treatment group the scores of the individual mice are summed. The motor response rate is defined as the percentage of animals per group responding to the stimulus.

Structure (SMILES): C[C@@H](Nc1cnc2cc(-c3cn[nH]c3)ccc2n1)c1cccc(Cl)c1 [Example 15]
- IC50 [1]: 0.5 µM
- IC50 [2]: 12 µM
- CS (clonic seizure), number of animals [3]: 0
- NR (no response), number of animals [3]: 6
- RA (respiratory arrest and/or death), number of animals [3]: 0
- SSS (seizure severity score, summed for the group) [3]: 2
- TS (tonic seizure), number of animals [3]: 0
- WR (wild running), number of animals [3]: 2
- Incidence of audiogenic seizures and severity of response ([3]; vs vehicle, p<0.01 by Fisher's test): reduced
